Experimental data taken from patent publication US20060084697A1, “Pi3k antagonists as radiosensitizers” (priority 2002, published 2006).

How the values were obtained:
HUVEC cells [1] = experiment: Apoptotic nuclei in HUVEC, H&E staining; type: cell-based, human; details: wortmannin 4 nM or LY294002 2 μM, 24 hours
Description: To determine whether PI3K antagonists enhance the activities of intrinsic cell death mechanisms induced by irradiation, apoptosis in HUVEC cells was studied following PI3K inhibition. HUVEC cells were treated with wortmannin (4 nM) or with LY294002 (2 μM) as described in Example 2. Cells were treated 30 minutes later with 3 Gy of ionizing radiation. Cultures were stained 24 hours later with hematoxylin and eosin (H&E) to reveal apoptotic nuclei. Stained cells were then examined by light microscopy. For each treatment group, four high power fields (40× objective) were examined, and both the number of cells with apoptotic nuclei and the total number of cells were determined. From these numbers, the percentage of apoptotic cells for each group was calculated.

HUVEC cells [2] = experiment: Clonogenic survival analysis of HUVEC; type: cell-based, human
Description: The ability of PI3K antagonist to suppress the clonogenic potential of HUVEC cells treated with radiation was assayed by clonogenic survival analysis. The ability of HUVEC cells treated with LY294002 30 minutes prior to irradiation to form colonies was compared to that of HUVEC cells treated with either radiation or LY294002 alone, and also to that of untreated HUVEC cells. […] Briefly, groups of three HUVEC culture plates were treated at each of four radiation dose levels: 2, 4, 6, and 8 Gy, either with or without prior treatment with PI3K antagonists as described in Example 2. After treatment with radiation and/or antagonists, cells were trypsinized, counted by hemocytometer, and subcultured into fresh medium. After 14 days, the cells were fixed with cold methanol and stained with 1% methylene blue. Colonies with greater than 50 cells were counted and the surviving fraction was determined.
To determine whether broad spectrum RTK inhibition enhances the cytotoxic effects of radiation on vascular endothelium, SU11248 was added 30 minutes prior to irradiation. HUVECs were treated with vehicle control, and either 100 nM SU11248 orvehicle combined with 6 Gy.

[3] = tested on: GL261 tumor blood vessels; experiment: Tumor vascular window model, vascular length density, GL261; type: in vivo, mouse
Description: Penicillin/streptomycin solution (200 μl; available from GIBCO™ Invitrogen Corporation of Carlsbad, Calif., United States of America) was injected into the hind limb of the mouse prior to preparation of the window chamber. The dorsal skin fold window chamber (Leunig et al., 1992) was prepared using a 3-gram plastic frame, which was applied to the skin of a test animal and remained attached for the duration of the study. To prepare a test animal for application of the plastic frame, the dorsal midline was found along the animal's back, and a clip was placed to hold the skin in position. […] Scanned slides were analyzed using IMAGE-PRO® software (Media Cybernetics, Silver Spring, Md., United States of America) as described below. […] Tumor blood vessels were quantified using IMAGE-PRO® software, which quantified the vascular length density of blood vessel within the microscopic field. The mean vascular length density and the standard error of the mean were calculated for each treatment group. The mean and 95% confidence intervals of vascular length density for each treatment group were calculated and variance was analyzed by the General Linear Models and Bonferroni t test. […] The mean vascular length densities of treatment group were determined at 0 hours, which was the time at which the radiation treatments were commenced. […]

GL261 glioma tumors = experiment: Power Doppler sonography of tumor blood flow, GL261 hind limb tumors; type: in vivo, C57BL/6J mice
From the text: Power Doppler sonography was used to study the response of tumor blood vessels to ionizing radiation. This method utilizes amplitude to measure blood flow in microvasculature. Tumors were imaged with a 10-5 MHz ENTOS® linear probe (Advanced Technology Laboratories, Inc., Bothell, Wash., United States of America) attached to an HDI® 5000 diagnostic ultrasound system (Advanced Technology Laboratories, Inc.). Power Doppler sonography images were obtained with the power gain set to 82%. Care was taken to minimize motion artifact. A 20-frame cineloop sweep of the entire tumor was obtained with the probe perpendicular to the long axis of the lower extremity along the entire length of the tumor. The images were analyzed using HDI® software (Advanced Technology Laboratories, Inc). This software allows direct evaluation of Power Doppler cineloop raw data. Color area was recorded for the entire tumor. Five mice were included in each treatment group. Values for color area were averaged for each tumor set and treated groups were compared to controls using the unpaired student t-test. GL261 glioma tumors were implanted in the hind limb of C57BL/6J mice as described in […] et al., 1998. […] Power Doppler analysis of tumor blood flow was measured on day 0, day 3, and day 7 after radiation treatment. […]

GL261 tumors = experiment: Tumor volume assessment, growth delay, GL261; type: in vivo, C57BL/6 mice
Description: GL261 tumors were generated by subcutaneous injection of 10^6 cells into the right thighs of C57BL/6 mice as described in Example 6. […] An equal number of large and intermediate size tumors were present in each group. GL261 tumor-bearing mice were treated with 24 Gy ionizing radiation administered in 8 fractionated doses over 10 days. LY294002 was administered at 3 mg/kg by intraperitoneal injection 15 minutes prior to irradiation on days 1, 3, 5, and 7 of radiation therapy. Control mice received identical doses and schedules of either LY294002 alone or radiation alone. Twice each week, tumor volumes were measured using skin calipers as previously described (Grugel et al., 1995; […] et al., 1998; Staba et al., 1998). Briefly, tumor volumes were calculated using the formula: a×b×c/2, where a=maximal width dimension, b=maximal length dimension, and c=maximal depth dimension, which was derived from the formula for calculating the volume of an ellipsoid (πd^3/6). Data were calculated as the percent of original (day 0) tumor volume and graphed as fractional tumor volume plus or minus one standard deviation for each treatment group. Growth delay was defined as the number of days required for tumors to reach a volume of 1 cm^3. Untreated control tumors reached 1 cm^3 at 7 days.

O=c1cc(N2CCOCC2)oc2c(-c3ccccc3)cccc12 [LY294002, 2-(4-Morpholinyl)-8-phenyl-4H-1-benzopyran-4-one]
apoptotic nuclei, % of cells (HUVEC cells [1]; HUVEC pretreated 30 minutes before 3 Gy): 16%
apoptotic cells (HUVEC cells [1]; unirradiated HUVEC): 2%
radiation-induced cytotoxicity compared to radiation alone (HUVEC cells [2]; HUVEC treated 30 minutes prior to 2, 4, 6, 8 Gy, p<0.05): significantly enhanced
plating efficiency, % of untreated control cells (HUVEC cells [2]; unirradiated HUVEC treated for 30 minutes): 70%
mean vascular length density at 96 hours, % of 0 hour ([3]; 3 mg/Kg intraperitoneally 15 minutes prior to 3 Gy): 5%
mean vascular length density at 96 hours, % of 0 hour ([3]; 3 mg/Kg intraperitoneally, no radiation, p=0.41): 85%
tumor blood flow (GL261 glioma tumors; LY294002 alone): unchanged
tumor blood flow (GL261 glioma tumors; LY294002 prior to 3 Gy irradiation): obliterated
growth delay: days for tumors to reach 1 cm^3 (GL261 tumors; 3 mg/kg i.p. 15 minutes prior to irradiation on days 1, 3, 5, 7, 24 Gy in 8 fractions): > 15 days
growth delay: days for tumors to reach 1 cm^3 (GL261 tumors; 3 mg/kg i.p. on days 1, 3, 5, 7, alone, untreated 7 days): 9 days
